Measured values: PubChem BioAssay AID248 (DTP/NCI, 2004)
Values joined by “and” are separate entries in the source; they are usually repeats but may differ in a detail not shown here. Equal entries are not always repeated. Inconclusive results and toxic doses are left out. Rule as the data show it: active = T/C of 150% or more; inactive = T/C below 125%.

Test system: L1210 leukemia ip in BDF1 mice, survival T/C
Test: NCI In Vivo Anticancer Drug Screen. Data for tumor model L1210 Leukemia (intraperitoneal) in B6D2F1 (BDF1) mice
Details: endpoint: mean survival time, higher = longer survival
Summary of the method: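 Mice bearing the transplanted tumor received compound or vehicle. Survival of the treated group was divided by that of the vehicle-treated control group to give the ratio.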

[1] = dose: 50.0 mg/kg/injection, schedule: Q01DX001 (ip), vehicle: saline
[2] = dose: 100.0 mg/kg/injection, schedule: Q01DX001 (ip), vehicle: saline
[3] = dose: 200.0 mg/kg/injection, schedule: Q01DX001 (ip), vehicle: saline
[4] = dose: 50.0 mg/kg/injection, schedule: Q04DX003 (ip), vehicle: Klucel (hydroxypropylcellulose) (HPC)
[5] = dose: 100.0 mg/kg/injection, schedule: Q04DX003 (ip), vehicle: Klucel (hydroxypropylcellulose) (HPC)
[6] = dose: 200.0 mg/kg/injection, schedule: Q04DX003 (ip), vehicle: Klucel (hydroxypropylcellulose) (HPC)
[7] = dose: 400.0 mg/kg/injection, schedule: Q04DX003 (ip), vehicle: Klucel (hydroxypropylcellulose) (HPC)
[8] = dose: 25.0 mg/kg/injection, schedule: Q04DX003 (ip), vehicle: saline with Tween-80
[9] = dose: 50.0 mg/kg/injection, schedule: Q01DX009 (ip), vehicle: Klucel (hydroxypropylcellulose) (HPC)
[10] = dose: 100.0 mg/kg/injection, schedule: Q01DX009 (ip), vehicle: Klucel (hydroxypropylcellulose) (HPC)
[11] = dose: 200.0 mg/kg/injection, schedule: Q01DX009 (ip), vehicle: Klucel (hydroxypropylcellulose) (HPC)
[12] = dose: 50.0 mg/kg/injection, schedule: Q01DX009 (ip), vehicle: saline
[13] = dose: 50.0 mg/kg/injection, schedule: Q04DX003 (ip), vehicle: saline
[14] = dose: 100.0 mg/kg/injection, schedule: Q04DX003 (ip), vehicle: saline
[15] = dose: 200.0 mg/kg/injection, schedule: Q04DX003 (ip), vehicle: saline
[16] = dose: 400.0 mg/kg/injection, schedule: Q04DX003 (ip), vehicle: saline
[17] = dose: 50.0 mg/kg/injection, schedule: Q01DX009 (ip), vehicle: saline with Tween-80
[18] = dose: 100.0 mg/kg/injection, schedule: Q01DX009 (ip), vehicle: saline with Tween-80
[19] = dose: 100.0 mg/kg/injection, schedule: Q04DX003 (ip), vehicle: saline with Tween-80
[20] = dose: 200.0 mg/kg/injection, schedule: Q01DX009 (ip), vehicle: saline with Tween-80
[21] = dose: 400.0 mg/kg/injection, schedule: Q04DX003 (ip), vehicle: saline with Tween-80
[22] = dose: 400.0 mg/kg/injection, schedule: Q01DX001 (ip), vehicle: saline

Measured: T/C

CCOc1ccc(N=Nc2c(C)nn(C(N)=S)c2-c2ccccc2)cc1
inactive: dose: 10.0 mg/kg/injection, schedule: Q01DX001 (ip), vehicle: saline 103 % of control | dose: 20.0 mg/kg/injection, schedule: Q01DX001 (ip), vehicle: saline 94 % of control | dose: 40.0 mg/kg/injection, schedule: Q01DX001 (ip), vehicle: saline 88 % of control

NC(CCl)C(=O)O (stereo not drawn)
inactive: dose: 6.25 mg/kg/injection, schedule: Q01DX001 (ip), vehicle: saline 103 % of control | dose: 12.5 mg/kg/injection, schedule: Q01DX001 (ip), vehicle: saline 101 % of control | dose: 25.0 mg/kg/injection, schedule: Q01DX001 (ip), vehicle: saline 103 % of control | [1] 97 % of control | [2] 92 % of control | [3] 90 % of control

O=C(SSC(=O)c1ccccc1)c1ccccc1
inactive: dose: 50.0 mg/kg/injection, schedule: Q01DX001 (ip), vehicle: carboxymethylcellulose (CMC) 96 % of control | dose: 100.0 mg/kg/injection, schedule: Q01DX001 (ip), vehicle: carboxymethylcellulose (CMC) 94 % of control | dose: 200.0 mg/kg/injection, schedule: Q01DX001 (ip), vehicle: carboxymethylcellulose (CMC) 90 % of control | dose: 400.0 mg/kg/injection, schedule: Q01DX001 (ip), vehicle: carboxymethylcellulose (CMC) 107 % of control

COc1cc(CNC(=O)CCN2CC2)ccc1O
inactive: [4] 109 % of control | [5] 98 % of control | [6] 95 % of control | [7] 97 % of control

CC(=O)CCC(C)(C)[N+](=O)[O-]
inactive: dose: 75.0 mg/kg/injection, schedule: Q01DX009 (ip), vehicle: acetone 97 % of control | dose: 150.0 mg/kg/injection, schedule: Q01DX009 (ip), vehicle: acetone 94 % of control | dose: 300.0 mg/kg/injection, schedule: Q01DX009 (ip), vehicle: acetone 95 % of control

CCOC(=O)c1[nH]c(-c2ccc(OC)cc2)c(C(=O)OCC)c1-c1ccccc1
inactive: dose: 100.0 mg/kg/injection, schedule: Q01DX001 (ip), vehicle: Klucel (hydroxypropylcellulose) (HPC) 88 % of control | dose: 200.0 mg/kg/injection, schedule: Q01DX001 (ip), vehicle: Klucel (hydroxypropylcellulose) (HPC) 108 % of control | dose: 400.0 mg/kg/injection, schedule: Q01DX001 (ip), vehicle: Klucel (hydroxypropylcellulose) (HPC) 114 % of control

COc1ccccc1[As](=O)(O)CC(O)COc1ccccc1 (stereo not drawn)
inactive: [8] 91 % of control

CCCCCCCCCCCCCCCCCCOS(=O)(=O)c1ccc(C)cc1
inactive: dose: 12.5 mg/kg/injection, schedule: Q01DX009 (ip), vehicle: Klucel (hydroxypropylcellulose) (HPC) 98 % of control | dose: 25.0 mg/kg/injection, schedule: Q01DX009 (ip), vehicle: Klucel (hydroxypropylcellulose) (HPC) 95 % of control | [9] 95 % of control

COc1cc(C=Nc2ccc(Oc3ccc(Cl)cc3)cc2)cc(OC)c1OC
inactive: [10] 102 % of control | [11] 96 % of control

CC[NH-].CC[NH-].[I][Pt+2][I]
inactive: dose: 12.5 mg/kg/injection, schedule: Q04DX003 (ip), vehicle: saline 106 % of control | dose: 25.0 mg/kg/injection, schedule: Q01DX009 (ip), vehicle: saline 109 % of control | dose: 25.0 mg/kg/injection, schedule: Q04DX003 (ip), vehicle: saline 101 % of control | [12] 105 % of control | [13] 101 % of control | [14] 110 % of control

N#[N+]c1n[nH]nc1C(N)=O
inactive: dose: 25.0 mg/kg/injection, schedule: Q01DX Z (ip), vehicle: carboxymethylcellulose (CMC) 97 % of control | dose: 35.0 mg/kg/injection, schedule: Q01DX Z (ip), vehicle: carboxymethylcellulose (CMC) 95 % of control

O=C1NCCC/C1=N/Nc1ccccc1
inactive: dose: 100.0 mg/kg/injection, schedule: Q04DX002 (ip), vehicle: Klucel (hydroxypropylcellulose) (HPC) 92 % of control | dose: 200.0 mg/kg/injection, schedule: Q04DX002 (ip), vehicle: Klucel (hydroxypropylcellulose) (HPC) 92 % of control | dose: 400.0 mg/kg/injection, schedule: Q04DX002 (ip), vehicle: Klucel (hydroxypropylcellulose) (HPC) 113 % of control

C[N+](C)(C)CCOS(=O)(=O)[O-]
inactive: [13] 99 % of control | [14] 97 % of control and 103 % of control | [15] 95 % of control and 105 % of control | [16] 98 % of control

CC(=O)Nc1ccc(S(=O)(=O)Nc2ccc([N+](=O)[O-])cc2)cc1
inactive: dose: 25.0 mg/kg/injection, schedule: Q01DX009 (ip), vehicle: saline with Tween-80 96 % of control | [17] 100 % of control | [18] 98 % of control and 87 % of control | [19] 109 % of control | [20] 95 % of control and 94 % of control | dose: 200.0 mg/kg/injection, schedule: Q04DX003 (ip), vehicle: saline with Tween-80 109 % of control | dose: 400.0 mg/kg/injection, schedule: Q01DX009 (ip), vehicle: saline with Tween-80 97 % of control and 94 % of control | [21] 109 % of control

c1cc2c3c(c1)nc(CCc1nc4cccc5c4n1CCC5)n3CCC2
inactive: [8] 101 % of control | dose: 50.0 mg/kg/injection, schedule: Q04DX003 (ip), vehicle: saline with Tween-80 95 % of control | [19] 93 % of control and 87 % of control | [21] 87 % of control

CCC(C)c1c(N)nc(N)[nH]c1=O (stereo not drawn)
inactive: [5] 94 % of control | [6] 106 % of control | [7] 110 % of control

CC1C(=O)Nc2ccccc2N1C(=O)CN1CCCC1 (stereo not drawn)
inactive: [12] 98 % of control | dose: 100.0 mg/kg/injection, schedule: Q01DX009 (ip), vehicle: saline 101 % of control | [14] 96 % of control | dose: 200.0 mg/kg/injection, schedule: Q01DX009 (ip), vehicle: saline 106 % of control | [15] 96 % of control | [16] 94 % of control

N#Cc1cncc(-c2ccccc2)c1
inactive: dose: 25.0 mg/kg/injection, schedule: Q04DX003 (ip), vehicle: Klucel (hydroxypropylcellulose) (HPC) 95 % of control | [4] 95 % of control | [5] 89 % of control

COc1ccc(CNCCCCO)cc1
inactive: dose: 50.0 mg/kg/injection, schedule: Q01DX009 (ip), vehicle: other 106 % of control | dose: 100.0 mg/kg/injection, schedule: Q01DX001 (ip), vehicle: other 104 % of control | dose: 100.0 mg/kg/injection, schedule: Q01DX009 (ip), vehicle: other 102 % of control | dose: 200.0 mg/kg/injection, schedule: Q01DX001 (ip), vehicle: other 106 % of control | dose: 200.0 mg/kg/injection, schedule: Q01DX009 (ip), vehicle: other 95 % of control | dose: 400.0 mg/kg/injection, schedule: Q01DX001 (ip), vehicle: other 97 % of control

O/N=C\c1ccccc1
inactive: [9] 92 % of control | [10] 86 % of control

Cc1ccc(-n2c(=O)c(N=Nc3ccccc3C)c(O)n(-c3ccccc3C)c2=S)cc1
inactive: dose: 37.5 mg/kg/injection, schedule: Q01DX001 (ip), vehicle: Klucel (hydroxypropylcellulose) (HPC) 95 % of control | dose: 75.0 mg/kg/injection, schedule: Q01DX001 (ip), vehicle: Klucel (hydroxypropylcellulose) (HPC) 103 % of control | dose: 150.0 mg/kg/injection, schedule: Q01DX001 (ip), vehicle: Klucel (hydroxypropylcellulose) (HPC) 100 % of control

Cn1c(=O)c2ccc[n+]([O-])c2n(C)c1=O
inactive: [10] 101 % of control | [5] 103 % of control | [11] 108 % of control | [6] 96 % of control | dose: 400.0 mg/kg/injection, schedule: Q01DX009 (ip), vehicle: Klucel (hydroxypropylcellulose) (HPC) 105 % of control | [7] 107 % of control

CNC(=O)OCCO
inactive: [2] 100 % of control | [3] 101 % of control | [22] 97 % of control

N=C(CC(=O)Nc1ccccc1)c1ccccc1
inactive: [1] 101 % of control | [2] 96 % of control | [3] 102 % of control | [22] 101 % of control

O=C(O)CSc1ccc(Cl)cc1
inactive: [17] 100 % of control | [18] 93 % of control | [20] 94 % of control

O=[N+]([O-])c1ccc(OCCCCOc2ccccc2)c(Cl)c1
inactive: [5] 95 % of control | [6] 96 % of control | [7] 91 % of control
